Where two headings read alike, the source gives them in different places.

For data set [1] the following is noted: cited from earlier work.
In the next data set the target is T1, UGT1A9 (Homo sapiens, UniProt O60656).
T1 construct: expressed in transfected cells; microsomal fraction
T1 sequence (O60656 26-530): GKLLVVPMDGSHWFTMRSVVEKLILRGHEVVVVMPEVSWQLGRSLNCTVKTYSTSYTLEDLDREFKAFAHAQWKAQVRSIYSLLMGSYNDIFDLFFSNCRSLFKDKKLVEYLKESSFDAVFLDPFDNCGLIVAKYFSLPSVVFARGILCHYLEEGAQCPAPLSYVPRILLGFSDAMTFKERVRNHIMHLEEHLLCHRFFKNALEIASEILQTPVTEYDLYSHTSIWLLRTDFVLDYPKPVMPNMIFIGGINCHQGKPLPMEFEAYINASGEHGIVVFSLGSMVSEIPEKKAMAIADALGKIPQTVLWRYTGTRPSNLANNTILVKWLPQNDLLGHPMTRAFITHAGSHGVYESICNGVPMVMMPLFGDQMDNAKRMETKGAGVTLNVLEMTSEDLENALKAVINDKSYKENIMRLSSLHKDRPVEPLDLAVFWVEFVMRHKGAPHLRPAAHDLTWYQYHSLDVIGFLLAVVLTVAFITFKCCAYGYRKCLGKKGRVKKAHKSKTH
The data set is described as follows: Inhibition of R-oxazepam glucuronidation in rUGT1A9 microsomes (UGT-overexpressing HEK293). Format: biochemical. The settings on record: for IC50: rUGT1A9. As to the method: (§1) Human embryonic kidney cells (HEK293) stably overexpressing the single UGTs 1A9, 2B7, and 2B15 have been previously established and described. Cells were grown in DMEM supplemented with 350 μg/mL of geneticin and 10% FBS and harvested in PBS. Microsomal fractions of UGT-overexpressing cell lines were prepared by differential centrifugation using previously described protocols. Briefly, cell homogenates were prepared by resuspending pelleted cells in PBS, followed by five rounds of freeze–thaw cycles prior to homogenization. Recombinant microsomes (rUGTs) were prepared by centrifuging the cell homogenate at a low speed (9000× g for 30 min) followed by ultracentrifugation (34,000× g for 60 min), with the total protein subsequently determined using a BCA assay. Recombinant microsomes (UGT1A9 and 2B7) and homogenates (UGT2B15) were used for inhibition studies.
(§2) A Waters Corp BEH C18 Acquity UPLC column (1.7 µM, 2.1 × 100 mm) was used at a constant temperature of 40 °C for chromatographic separation. An elution gradient was used for 6.5 min with mobile phases A (5 mM ammonium formate) and B (100% methanol) under the following conditions: 90% A for 0.5 min, followed by a linear gradient for 3 min to 60% A, 1 min at 5% A, and re-equilibration for 1 min at 90% A.
(§3) The reaction was initiated by the addition of 4 mM UDPGA as the cofactor and incubated for 2 h at 37 °C. The reaction was terminated by adding 30 µL of an ice-cold stop solution (acetonitrile/methanol; 1:1). The reaction mixtures were centrifuged at 17,000× g for 30 min at 4 °C, and the supernatant was transferred to UPLC sample glass vial for analysis using UPLC–MS/MS (described above). […] As a positive control for inhibition assays, ketoconazole (10 μM and 100 µM) was used as a potential inhibitor of the UGTs 1A9, 2B7, and 2B15. Reactions containing only the cannabinoid vehicle (3% methanol) and without any inhibitor (cannabinoids) were used as a baseline reaction for 100% enzyme activity, while a reaction without UDPGA was used as a negative control. All experiments were performed in three independent experiments.
(§4) Determination of IC50 and Ki Values. […] The nonspecific binding constants (fu,inc) for cannabinoids in HEK293 microsomes, HLM, and HKM were previously determined and used to calculate the inhibition by unbound (‘free’) cannabinoid in each reaction. A nonlinear regression analysis and the following equation were used to calculate the IC50 values:(1) y = Bottom +Top − Bottom / 1 + 10^x − LogIC50A where ‘Bottom’ is the maximum observed inhibition (lowest percent activity) and ‘Top’ is the minimum observed inhibition (highest percent activity) for a given cannabinoid.

The subject of data set [2] is human liver microsomes (HLM). The data set is described as follows: Inhibition of R- and S-oxazepam glucuronidation in human liver microsomes. As to the method: as §2, §3, §4
The inhibition constant (Ki) was generated from the in vitro IC50 values assuming competitive inhibition (based on the Cheng–Prusoff equation; [49]). Considering that there have been no reports of the irreversible inhibition (e.g., mechanism-based inhibition) of UGTs, competitive inhibition was assumed as the worst-case scenario (highest inhibition) among all feasible types of reversible inhibitions. The substrate concentration used in the incubations was below the reported Km; therefore, the Ki values were predicted using Equation (2):(2) Ki=IC50/S/Km+1 where Km is Michaelis–Menten constant for the substrate, S is the substrate concentration, and IC50 is half-maximal inhibitory concentration.
(Liver microsomes are vesicles of endoplasmic reticulum, rich in cytochrome P450 enzymes.)

For data set [3] the following is noted: cited from earlier work. The source holds these as a separate data set.
In a further data set the target is T2, UGT2B15 (Homo sapiens, UniProt P54855).
T2 construct: expressed in transfected cells; cell homogenate
T2 sequence (P54855 24-530): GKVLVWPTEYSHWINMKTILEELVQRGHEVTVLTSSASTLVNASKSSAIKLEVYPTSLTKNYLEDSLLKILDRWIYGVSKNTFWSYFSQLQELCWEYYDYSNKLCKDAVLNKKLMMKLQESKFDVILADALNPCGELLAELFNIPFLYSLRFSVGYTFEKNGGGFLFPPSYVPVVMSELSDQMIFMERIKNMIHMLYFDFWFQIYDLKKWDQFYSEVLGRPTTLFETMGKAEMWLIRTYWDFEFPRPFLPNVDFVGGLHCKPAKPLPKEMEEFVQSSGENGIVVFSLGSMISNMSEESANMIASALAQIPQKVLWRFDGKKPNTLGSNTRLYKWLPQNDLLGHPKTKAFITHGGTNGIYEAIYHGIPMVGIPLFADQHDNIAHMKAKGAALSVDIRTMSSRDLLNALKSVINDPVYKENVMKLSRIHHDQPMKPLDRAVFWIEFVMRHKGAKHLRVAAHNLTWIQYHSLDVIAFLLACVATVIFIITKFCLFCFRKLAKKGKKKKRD
The data set is described as follows: Inhibition of S-oxazepam glucuronidation in rUGT2B15 homogenate/microsomes (UGT-overexpressing HEK293). The format is biochemical. The note with it: for IC50: rUGT2B15. As to the method:
as §1, §2, §3, §4

Setting [4] is: overexpressing HEK293 cell lines.
Where [5] appears, read: IC50 corrected with fu,inc, read-out: IC50,u, R-Oxazepam Glucuronide.
Where [6] appears, read: rUGT1A9 microsomes, 100 µM cannabinoid, vs control without cannabinoid.
The mark [7] stands for this setting: read-out: IC50, R-Oxazepam Glucuronide.
Setting [8] is: read-out: IC50, S-Oxazepam Glucuronide.
The mark [9] stands for this setting: read-out: IC50,u, R-Oxazepam Glucuronide, IC50 corrected with fu,inc.
[10] abbreviates: read-out: Ki, R-Oxazepam Glucuronide, generated from IC50 assuming competitive inhibition.
[11] abbreviates: read-out: Ki, S-Oxazepam Glucuronide, generated from IC50 assuming competitive inhibition.
The mark [12] stands for this setting: read-out: Ki,u, R-Oxazepam Glucuronide, Ki corrected with fu,inc.
Where [13] appears, read: read-out: Ki,u, S-Oxazepam Glucuronide, Ki corrected with fu,inc.
[14] abbreviates: IC50 corrected with fu,inc, read-out: IC50,u, S-Oxazepam Glucuronide.

For `CCCCCc1cc(O)c2c(c1)OC(C)(C)[C@@H]1CCC(C)=C[C@@H]21` [THC, Δ^9-tetrahydrocannabinol], the “unbound fraction (fu,inc)” value in data set [1] (incubation mixtures with HKM) is on record as 0.052 ± 0.005; in data set [1] (incubation mixtures with HLM), 0.048 ± 0.002; in data set [1] (setting [4]), 0.042 ± 0.003. The IC50 was 0.5 ± 0.31 µM at UGT1A9 (setting [5]); 34 ± 16 µM in data set [2] (setting [7]); more than 100 µM in data set [2] (setting [8]); 1.6 ± 0.77 µM in data set [2] (setting [9]); 0.84 ± 0.42 µM at UGT2B15 (setting [14]); 20 ± 10 µM on UGT2B15 (setting [8]). Moreover, at UGT1A9 (setting [6]), the “Inhibition of R-oxazepam glucuronide formation” value is recorded as 83%. Further, the Ki in data set [2] (setting [10]) was 33 ± 15 µM; in data set [2] (setting [11]), more than 83 µM; in data set [2] (setting [12]), 1.6 ± 0.74 µM; in data set [2] (setting [13]) it was more than 3.2 µM. For the same compound, the Cmax in data set [3] (THC dose 20 mg, oral) is 30 nM; in data set [3] (THC dose 25 mg, inhalation), 250 nM; in data set [3] (THC dose 70 mg, inhalation), 700 nM; in data set [3] (THC dose 100 mg, inhalation) it was 990 nM; in data set [3] (THC dose 130 mg, oral) it was 200 nM; in data set [3] (THC dose 160 mg, oral), 240 nM. Moreover, the Cmax in data set [3] (after smoking) is 640 nM; in data set [3] (oral ingestion of 50 mg THC), 530 nM; in data set [3] (smoking cannabis cigarettes with 3.55% THC) it was 515 nM.

Take `C=C(C)[C@@H]1CCC(C)=C[C@H]1c1c(O)cc(CCCCC)cc1O` [CBD, cannabidiol]: the “unbound fraction (fu,inc)” value is 0.062 ± 0.009 in data set [1] (incubation mixtures with HKM), 0.051 ± 0.008 in data set [1] (incubation mixtures with HLM) and 0.038 ± 0.002 in data set [1] (setting [4]). Also, the inhibition at 2 h, 10 µM is 98% at UGT1A9 (human, pH 7.4, rUGT1A9 microsomes, 10 µM cannabinoid, vs control without cannabinoid, read-out: Inhibition of R-oxazepam glucuronide formation) and 40 to 66% at UGT2B15 (human, pH 7.4, rUGT2B15 microsomes, 10 µM cannabinoid, range over the four cannabinoids, read-out: Inhibition of S-oxazepam glucuronide formation). Also, the inhibition at 2 h, 100 µM is 99% on UGT1A9 (human, pH 7.4, rUGT1A9 microsomes, 100 µM cannabinoid, vs control without cannabinoid, read-out: Inhibition of R-oxazepam glucuronide formation) and 83 to 91% at UGT2B15 (human, pH 7.4, rUGT2B15 microsomes, 100 µM cannabinoid, range over the four cannabinoids, read-out: Inhibition of S-oxazepam glucuronide formation). In addition, the IC50 on UGT1A9 (setting [5]) was 0.053 ± 0.011 µM; on UGT1A9 (setting [7]), 1.4 ± 0.29 µM; on UGT2B15 (setting [14]), 2 ± 0.35 µM; at UGT2B15 (setting [8]) it was 54 ± 9 µM. Besides, the Ki in data set [2] (setting [10]) turned out to be 16 ± 7.4 µM; in data set [2] (setting [11]), 72 ± 32 µM; in data set [2] (setting [12]), 0.82 ± 0.38 µM; in data set [2] (setting [13]), 3.7 ± 1.6 µM. Also, the Cmax in data set [3] (1500 mg dose of CBD following a high-fat diet) was 4400 nM; in data set [3] (CBD 2 mg, inhalation) it was 6.4 nM; in data set [3] (CBD 19 mg, inhalation), 350 nM; in data set [3] (CBD 70 mg, oral), 89 nM; in data set [3] (CBD 700 mg, oral), 890 nM; in data set [3] (CBD 2000 mg, oral) it was 2500 nM.

“11-hydroxy-Δ^9-tetrahydrocannabinol [11-OH-THC]”: the “unbound fraction (fu,inc)” value in data set [1] (incubation mixtures with HKM) was 0.094 ± 0.014; in data set [1] (incubation mixtures with HLM) it was 0.094 ± 0.014; in data set [1] (setting [4]), 0.078 ± 0.042. Moreover, the IC50 at UGT1A9 (setting [5]) was 1 ± 0.6 µM; on UGT1A9 (setting [7]), 13 ± 7.7 µM; in data set [2] (setting [7]), 18 ± 5 µM; in data set [2] (setting [8]) it was 41 ± 25 µM; in data set [2] (setting [9]), 1.7 ± 0.47 µM; in data set [2] (read-out: IC50,u, S-Oxazepam Glucuronide, IC50 corrected with fu,inc), 3.9 ± 2.4 µM. In addition, the IC50 at UGT2B15 (setting [14]) was 4.5 ± 2.1 µM; on UGT2B15 (setting [8]), 58 ± 27 µM. Moreover, at UGT1A9 (setting [6]), the “Inhibition of R-oxazepam glucuronide formation” value was 87%. In addition, the Ki is 18 ± 4.9 µM in data set [2] (setting [10]), 34 ± 21 µM in data set [2] (setting [11]), 1.7 ± 0.46 µM in data set [2] (setting [12]) and 3.2 ± 2 µM in data set [2] (setting [13]). Besides, the Cmax in data set [3] (THC dose 20 mg, oral) was 15 nM; in data set [3] (THC dose 25 mg, inhalation), 12 nM; in data set [3] (THC dose 70 mg, inhalation), 32 nM; in data set [3] (THC dose 100 mg, inhalation) it was 46 nM; in data set [3] (THC dose 130 mg, oral) it was 100 nM; in data set [3] (THC dose 160 mg, oral), 120 nM. Besides, the Cmax in data set [3] (after smoking) is 90 nM; in data set [3] (oral ingestion of 50 mg THC), 160 nM.

A word on the IC50: it is the point on the concentration scale where inhibition reaches its midpoint. Usually Ki stands for the dissociation constant of the complex between target and ligand, obtained from inhibition or displacement. As a reminder, the Cmax is the highest concentration seen after dosing. For orientation: inhibition means the change of the read-out against control, counted positive when it falls.

These data come from publication PMC10892093 (Pharmaceutics, 2024).
